Laboratory results reported in patent US5643954A, “Method of preventing and alleviating stress in a healthy mammal in need thereof” (priority 1993, dated 1997).
Where two headings read alike, the source gives them in different places.

Tests used:
[1] = system: Corazol twitch paroxysm
[2] = orientation motive activity of mice, automated registration of movements; type: in vivo, mice (male); conditions: for Number of movements in 10 min in register: M ± m
Description: (§1) Experiments were conducted in vivo on male mice weighing 18-22 g and male rats weighing 200-250 g, as well as in vitro on the isolated organs: a guinea pig's ileum and a rat's seminal effervesces.

[3] = system: hexenal sleep; experiment: comparative interaction test with hexenal, rats; type: in vivo; conditions: M ± m
[4] = system: chronic electric painful influence; conditions: for daily 15% ethanol consumption: M ± m
Description: In the test and control groups of animals, a determination was given during 7 days to an individual daily consumption of 15% ethanol in the conditions of free choice between said 15% ethanol and water. Thereafter the young rats were subjected to quintuple electric painful influence, daily for 2 weeks, on the paws for 5 minutes, duration 1 sec.; the grown-up animals--tenfold influence for 10 minutes, duration 1 sec. […] The control group received a corresponding volume of water.

[5] = system: EEG; conditions: M
[6] = system: hexenal effects; conditions: M ± m
[7] = system: guinea pig's ileum (acetylcholine); conditions: for Amplitude of concentration in % to control / Amplitude of concentration: acetylcholine; for Amplitude of concentration: M ± m
Description: as §1

[8] = system: rat's seminal effervesce (adrenaline); conditions: for Amplitude of concentration in % to control / Amplitude of concentration: adrenaline; for Amplitude of concentration: M ± m
Description: as §1

[9] = 200 mg/kg single administration, M ± m

## aminoacetic acid [claimed preparation]
[1]; 80 mg/kg single administration, M ± m
  Threshold doses Corazol 1% solution, start of twitch: 0.095 ± 0.004 mL
[1]; [9]
  Threshold doses Corazol 1% solution, death of animal: 0.130 ± 0.08 mL
  Threshold doses Corazol 1% solution, start of twitch: 0.096 ± 0.007 mL
[1]; in words
  Corazol threshold dosage: somewhat increasing a Corazol threshold dosage
[2]; 2 mg/kg intraperitoneally
  Number of movements in 10 min in register: 371 ± 56
[2]; 20 mg/kg intraperitoneally
  Number of movements in 10 min in register: 365 ± 79
[2]; 40 mg/kg into stomach
  Number of movements in 10 min in register: 439 ± 70
[2]; 40 mg/kg intraperitoneally
  Number of movements in 10 min in register: 324 ± 56
[2]; 80 mg/kg intraperitoneally
  Number of movements in 10 min in register: 398 ± 48
[2]; 200 mg/kg intraperitoneally
  Number of movements in 10 min in register: 275 ± 23
[2]; in words
  motor activity: reduction of animals' motor activity
[3]; 2 mg/kg
  Hexanal sleep duration: 36.0 ± 1.8 min
[3]; 40 mg/kg
  Hexanal sleep duration: 32.0 ± 1.9 min
[3]; 200 mg/kg
  Hexanal sleep duration: 28.0 ± 1.9 min
[4]; adult animals, 2nd week, 1 to 2 mg/kg tongue root
  daily 15% ethanol consumption: 3.4 ± 0.13 mL
[4]; adult animals, 4th week (after cancellation)
  daily 15% ethanol consumption: 2.3 ± 0.3 mL
[4]; adult animals, 3d week, 1 to 2 mg/kg tongue root
  daily 15% ethanol consumption: 2.5 ± 0.15 mL
[4]; adult animals, Test, 1st week (before stress and administration)
  daily 15% ethanol consumption: 1.8 ± 0.08 mL
[4]; during the entire experiment, vs control groups
  aggressiveness and exciteability: considerable reduction of aggressiveness and exciteability
[4]; rat, in vivo
  alcohol motivation: diminishes the alcohol motivation of the animals
[4]; young rats, 2nd week, 1 to 2 mg/kg tongue root
  daily 15% ethanol consumption: 4.4 ± 0.3 mL
[4]; young rats, 4th week (after cancellation)
  daily 15% ethanol consumption: 1.6 ± 0.18 mL
[4]; young rats, 3d week, 1 to 2 mg/kg tongue root
  daily 15% ethanol consumption: 2.0 ± 0.2 mL
[4]; young rats, Test, 1st week (before stress and administration)
  daily 15% ethanol consumption: 2.7 ± 0.2 mL
[5]; 1,5 hrs after a dose
  Attention mobilization: reaction expression: 2.82 arbitrary units
  Eye opening-closing reaction: biopotential amplitude decline: 25.40 mV
  Eye opening-closing reaction: response: 3.71 arbitrary units
  HV-reaction (test with hyperventilation): reaction expression: 2.07 arbitrary units
  HV-reaction: after-effect: 12.40 s
  Presence of errors in count: 28.60%
  Repeated response to eye opening-closing: reaction expression: 3.73 arbitrary units
  Sonic signal count: reaction expression: 3.64 arbitrary units
  Sonic signal count: reaction suppression: 5.79 sonic signals
[5]; after two-week course
  Attention mobilization: reaction expression: 3.21 arbitrary units
  Eye opening-closing reaction: biopotential amplitude decline: 23.60 mV
  Eye opening-closing reaction: response: 3.07 arbitrary units
  HV-reaction (test with hyperventilation): reaction expression: 2.64 arbitrary units
  HV-reaction: after-effect: 20.70 s
  Presence of errors in count: 33.00%
  Repeated response to eye opening-closing: reaction expression: 3.00 arbitrary units
  Sonic signal count: reaction expression: 3.79 arbitrary units
  Sonic signal count: reaction suppression: 6.57 sonic signals
[6]; 2 mg/kg
  hexenal duration of sleep: 36.0 ± 1.8 min
  hexenal latent period: 4.5 ± 0.3 min
[6]; 40 mg/kg
  hexenal duration of sleep: 32.0 ± 1.9 min
  hexenal latent period: 4.5 ± 0.6 min
[6]; 200 mg/kg
  hexenal duration of sleep: 28.0 ± 1.9 min
  hexenal latent period: 3.8 ± 0.7 min
[7]; 1·10^-4 M, 100 µM
  Amplitude of concentration in % to control: 89%
[7]; 1·10^-4 M
  Amplitude of concentration: 97.0 ± 1.5 mm
[7]; 1·10^-5 M, 10 µM
  Amplitude of concentration in % to control: 99%
[7]; 1·10^-5 M
  Amplitude of concentration: 105.0 ± 1.8 mm
[7]; 1·10^-6 M, 1 µM
  Amplitude of concentration in % to control: 109%
[7]; 1·10^-6 M
  Amplitude of concentration: 116.0 ± 2.4 mm
[7]; in words
  antagonism with acetylcholine: without discovering antagonism with said acetylcholine
[8]; 1·10^-4 M, 100 µM
  Amplitude of concentration in % to control: 65,5%
[8]; 1·10^-4 M
  Amplitude of concentration: 45.0 ± 0.6 mm
[8]; 1·10^-5 M, 10 µM
  Amplitude of concentration in % to control: 83%
[8]; 1·10^-5 and 1·10^-4 M
  adrenoblocking action: weak and mild adrenoblocking action
[8]; 1·10^-6 M, 1 µM
  Amplitude of concentration in % to control: 94%
[8]; 1·10^-6 M
  Amplitude of concentration: 65.0 ± 1.2 mm
[8]; in words
  contracting responses to adrenaline: suppresses the contracting responses
